Experimental data reported in patent publication US5380724A, “Piperazine and homopiperazine derivatives, pharmaceutical compositions containing them and process for preparing same” (Gyogyszerkutato Intezet KFT, priority 1992, dated 1995).
pIC50: −log10 of the molar value.

What was measured:
[1] = system: ischemia induced weight increase of the small intestine; assay: inhibition of ischemia induced weight increase of a definite section in the small intestine of rats; assay type: in vivo; conditions: Rattus norvegicus, 25 mg/kg oral
Experimental: 2. […] The percentage of inhibition observed after administration of a 25 mg/kg oral dose of the compounds of the invention or of the reference compounds is shown in Table 5.

[2] = system: rat brain homogenate (ferrous ion dependent lipid peroxidation); assay: ferrous ion dependent lipid peroxidation inhibitory activity on rat brain homogenate (thiobarbituric acid reactive substances); assay type: biochemical; conditions: Fe2+ dependent lipid peroxidation, TBARS
Experimental: 1. The ferrous ion dependent lipid peroxidation inhibitory activity was measured on rat brain homogenate by using the method descibed by J. M. Braughler et al., [J. Biol. Chem. 262, 10438 (1987)] and J. A. Buege and S. D. […] The IC50 value is defined as the concentration of a test substance which reduces by 50% the amount of the thiobarbituric acid reactive substances (chiefly malondialdehyde) considered to be a characteristic parameter of lipid peroxidation.

acute brain injury = assay: inhibition of acute brain injury of mice (improvement in the neurological state); assay type: in vivo; conditions: intravenous
Excerpt: 1. […] 68, 456 (1988)]. The doses of the test compounds administered by the intravenous route and the percentage of improvement in the neurological state are summarized in Table 4.

acute toxicity in rats = assay type: in vivo; conditions: rat, in vivo, oral
rats = assay: acute toxicity in rats; assay type: in vivo; conditions: 1000 mg/kg oral
[3] = system: NADPH dependent lipid peroxidation; assay: inhibition of the NADPH dependent lipid peroxidation; assay type: biochemical
Experimental: 3. Inhibiton of the NADPH dependent lipid peroxidation was measured according to T. J. Player and A. A. Horton [J. Neurochem. 37, 422 (1981)] and Z. Duniec [Biochem. Pharmacol. 32, 2283 (1983)]. The IC50 values (expressed in micromols) of some compounds of the invention, further those of the reference compounds determined in this test are given in Table 3.

[4] = system: arachidonic acid (ferrous ion dependent peroxidation); assay: inhibition of the ferrous ion dependent peroxidation of arachidonic acid; assay type: biochemical; conditions: Fe2+ dependent peroxidation of arachidonic acid
Experimental: 2. The inhibition of the ferrous ion dependent peroxidation of arachidonic acid was also measured by the method of J. M. Braughler et al. [J. Biol. Chem. 262, 10438 (1987)] and J. A. Buege and S. D. Aust [Methods in Enzymology 52, 302 (1978)]. The IC50 values (expressed in micromols) of some compounds of the invention, further those of the reference compounds determined in this test are shown in Table 2.

SMILES	inhibition in vivo at 25 mg/kg [1] [%]	pIC50 [2]	Improvement (in the neurological state) (acute brain injury; 10 mg/kg) [%]	LD50 (acute toxicity in rats) [mg/kg]	death of treated animals (rats)	Improvement (in the neurological state) (acute brain injury; 20 mg/kg) [%]	pIC50 [3]	pIC50 [4]
C=CCCCCCCCCC(=O)N1CCN(c2cc(N3CCCC3)nc(N3CCCC3)n2)CC1 [Example 1, 1-(10-Undecenoyl)-4-[2,6-di(1-pyrrolidinyl)-4-pyrimidinyl]piperazine]	55	4.52	68	> 1000	did not provoke death of any of the treated animals	–	–	–
c1ccc(C(c2ccccc2)(c2ccccc2)N2CCN(c3cc(N4CCCC4)nc(N4CCCC4)n3)CC2)cc1 [Example 10]	56	–	–	> 1000	did not provoke death of any of the treated animals	–	–	–
OC(COc1ccc2ccccc2c1)CN1CCCN(c2cc(N3CCCC3)nc(N3CCCC3)n2)CC1 (stereo not shown) [Example 27]	60	5.10	–	> 1000	did not provoke death of any of the treated animals	82	4.66	–
Nc1cc(N2CCN(CC(O)COc3ccc4c(c3)CCCC4=O)CC2)nc(N)n1 (stereo not shown) [Example 28]	64	–	–	> 1000	did not provoke death of any of the treated animals	–	–	–
Nc1cc(N2CCN(C(=O)COc3ccc4ccccc4c3)CC2)nc(N)n1 [Example 34]	69	–	–	> 1000	did not provoke death of any of the treated animals	–	–	–
Nc1nc(N)c2nc(-c3ccc(OCC(O)CN4CCNCC4)cc3)c(N)nc2n1 (stereo not shown) [Example 50, 6-[4-[2-Hydroxy-3-(1-piperazinyl)propoxy]phenyl]-2,4,7-triamino-pteridine]	78	–	–	> 1000	did not provoke death of any of the treated animals	93	–	4.82
